Results on 2 compounds are retold here after patent publication US11944615B2, “Combination therapy for treatment of LKB1 deficient cancers” (New York University, priority 2020, dated 2024).

One assay has as its system PD-L1. The experiment in a line: Western blot of PD-L1 in KP cells with SIK or LKB1 knockout treated with NAM. It is filed as cell-based, mouse. (A western blot detects proteins with antibodies after separation by electrophoresis.)
Another assay has as its system KL allograft tumor. The assay is described as follows: KL subcutaneous allograft tumor growth in syngeneic wild-type mice. Format: in vivo. To be noted: KL allograft implanted subcutaneously in right flank, single agent, I.P. 5 days/week. The text has this: FIG. 6. NAMPT inhibition reduced KL lung tumor growth in vivo. A) Lung tumor volume measurements of KL subcutaneous allograft tumors following treatment with indicated drugs. B) Average tumor volumes over time in KL tumors with indicated treatments. Arrow denotes treatment start time. C) Percent change in KL tumor volume after 6 days of treatment with indicated drugs. D) Images of subcutaneous KL tumor allografts at endpoint of treatment experiment. *P<0.05.
All animal experiments were reviewed and approved by the Institutional Animal Care and Use Committee (IACUC) at NYU Langone Health. For lung tumor growth assays, 10^6 KP and KL syngeneic mouse lung cancer cells were implanted into male C57BL/6 mice at 7 weeks of age via tail vein injection. After 8 weeks, mice were imaged by Mill to assess tumor volume. For drug treatment experiments, 10^6 KLA cells were injected subcutaneously in the right flank of female C57BL/6 mice at 7 weeks of age or injected via tail vein injection. […] Tumor volumes were measured using digital calipers or Mill. Mouse weights were measured weekly to adjust total dosage and assess the effects of drug combinations on mouse health. […]

Procedure for PD-L1: A) Western blot of indicated proteins in KL or KP cells with SIK or LKB1 knockout and treated with NAM or NAD^+ for 6 days.
Lung cancer cell lines were cultured in RPMI 1640 (Gibco, Thermo Fisher Scientific) supplemented with 10% fetal bovine serum (FBS, Gibco). The KPC Kras^LA1-G12D p53^−/− (KP) and KLA Kras^LA1-G12D;Lkb1^−/− (KL) murine lung cancer cell lines were generated by dissociation of KP and KL lung tumor nodules to single cell suspensions, seeded on tissue culture plates, and cultured in RPMI 1640 (Gibco, Thermo Fisher Scientific) supplemented with 10% fetal bovine serum (FBS, Gibco). […] All cells were cultured at 37° C. in a humidified incubator at 5% CO2 and verified on a weekly basis to be mycoplasma negative.

Turning to `NC(=O)c1cccnc1` [NAM, nicotinamide], the PD-L1 levels entry in the assay on PD-L1 (KP cells with SIK or LKB1 KO, NAM treatment for 6 days) is given as “marked reduction in PD-L1 levels”; in the assay with PD-L1 (KP cells with wild-type SIK or LKB1, NAM treatment), “no effect on PD-L1 levels”.

Regarding `O=C(/C=C/c1cccnc1)NCCCCC1CCN(C(=O)c2ccccc2)CC1` [FK866], in the assay with KL allograft tumor, the tumor growth result is “reduced lung tumor growth only after 6 days of treatment”.
